# In patent US12404301B2, “Polypeptide having anti-aging activity, and application thereof” (NANJING ANJI BIOLOGICAL TECHNOLOGY CO., LTD., priority 2020, dated 2025):
# System: Wild-type Caenorhabditis elegans
# Test: Experiment on the lifespan of Caenorhabditis elegans
# Assay type: in vivo
# Conditions: for longest lifespan of the nematodes / Median survival time (time to half death) / day when death occurs compared with the control group / time to half death compared with the control group (significance) / longest lifespan, days longer than that of the control group / time to half death longer than in the control group: 10 nM; for Median survival time (time to half death): Kaplan-Meier, Median ± SE; for day when death occurs compared with the control group / time to half death compared with the control group (significance): in words; for longest lifespan, days longer than that of the control group / time to half death longer than in the control group: vs control group
# Description: Synchronization of Caenorhabditis elegans: The NGM plate with a moderate nematode density was selected. The larvae at the L4 stage were picked with a pick needle for about 20 in total and transferred into the blank NGM plate. After they developed into adults and laid the first batch of eggs, all the adults were picked out. About 12 hours later, the eggs hatched into larvae, to obtain the synchronized larvae at the L1 stage. Preliminary preparation for the experiment on the lifespan of Caenorhabditis elegans: The NGM was washed with 1 mL of M9 buffer. The resulting buffer containing the larvae at the L1 stage was collected into an EP tube, placed in a chromatographic cabinet at 4° C. for 5 min, and centrifuged at 1500× g/4° C. for 3 min. The supernatant was removed. After 100 μL of buffer was resuspended, the nematodes were counted under a microscope, and the nematodes were diluted to a concentration of 30 worms/10 μL. 10 μL of diluted nematodes were added into the NGM plate inoculated with E. coli OP50, and the nematodes were counted under the microscope to ensure that there were about 30 nematodes. The NGM plate was placed in a constant temperature incubator to culture. Experiment on the lifespan of Caenorhabditis elegans: After the nematodes at the L1 stage developed to the L4 stage, 100 μL of 15.6 μg/mL 5-FUDR was added for inhibition of Caenorhabditis elegans from oviposition. After the nematodes developed to adults, the dosing started, and the nematodes were divided into a control group and a 10 nM dose group, which was recorded as day 1 of the lifespan experiment. After that, the dosing was carried out every day, the numbers of nematodes that survived, died, and unexpectedly died were observed and recorded every day, and the status of the nematodes was observed and recorded, until the last nematode died. […] The dead nematodes need to be picked out of the plate. The E. coli OP50 needs to be added in time when exhausted. Kaplan-Meier statistical analysis was carried out on the data, and the data results were expressed as Median±SE. Compared with the control group, *P<0.05 represents a significant difference, and **P<0.01 represents a very significant difference.
substance,measurement,setting,value
TTKFAA [WD3],longest lifespan of the nematodes,,33 days
same,Median survival time (time to half death),,21.000 days
same,day when death occurs compared with the control group,,no significant difference
same,time to half death compared with the control group (significance),,does not have a significant difference
same,"longest lifespan, days longer than that of the control group",,5 days
same,time to half death longer than in the control group,,1 days
same,Number of remaining nematodes,"day 0, 10 nM",28
same,Number of remaining nematodes,"day 1, 10 nM",28
same,Number of remaining nematodes,"day 2, 10 nM",28
same,Number of remaining nematodes,"day 3, 10 nM",28
same,Number of remaining nematodes,"day 4, 10 nM",28
same,Number of remaining nematodes,"day 5, 10 nM",28
same,Number of remaining nematodes,"day 6, 10 nM",28
same,Number of remaining nematodes,"day 7, 10 nM",28
same,Number of remaining nematodes,"day 8, 10 nM",28
same,Number of remaining nematodes,"day 9, 10 nM",28
same,Number of remaining nematodes,"day 10, 10 nM",28
same,Number of remaining nematodes,"day 11, 10 nM",27
same,Number of remaining nematodes,"day 12, 10 nM",27
same,Number of remaining nematodes,"day 13, 10 nM",27
same,Number of remaining nematodes,"day 14, 10 nM",22
same,Number of remaining nematodes,"day 15, 10 nM",20
same,Number of remaining nematodes,"day 16, 10 nM",20
same,Number of remaining nematodes,"day 17, 10 nM",20
same,Number of remaining nematodes,"day 18, 10 nM",20
same,Number of remaining nematodes,"day 19, 10 nM",17
same,Number of remaining nematodes,"day 20, 10 nM",15
same,Number of remaining nematodes,"day 21, 10 nM",14
same,Number of remaining nematodes,"day 22, 10 nM",11
same,Number of remaining nematodes,"day 23, 10 nM",10
same,Number of remaining nematodes,"day 24, 10 nM",9
same,Number of remaining nematodes,"day 25, 10 nM",6
same,Number of remaining nematodes,"day 26, 10 nM",6
same,Number of remaining nematodes,"day 27, 10 nM",5
same,Number of remaining nematodes,"day 28, 10 nM",4
same,Number of remaining nematodes,"day 29, 10 nM",2
same,Number of remaining nematodes,"day 30, 10 nM",1
same,Number of remaining nematodes,"day 31, 10 nM",1
same,Number of remaining nematodes,"day 32, 10 nM",1
same,Number of remaining nematodes,"day 33, 10 nM",1
same,Number of remaining nematodes,"day 34, 10 nM",0
same,Number of remaining nematodes,"day 35, 10 nM",0
same,Number of remaining nematodes,"day 36, 10 nM",0
same,Number of remaining nematodes,"day 37, 10 nM",0
same,Number of remaining nematodes,"day 38, 10 nM",0
PPTTKFAA [WD1],longest lifespan of the nematodes,,31 days
same,Median survival time (time to half death),,21.000 days
same,day when death occurs compared with the control group,,no significant difference
same,time to half death compared with the control group (significance),,does not have a significant difference
same,"longest lifespan, days longer than that of the control group",,3 days
same,time to half death longer than in the control group,,1 days
same,Number of remaining nematodes,"day 0, 10 nM",29
same,Number of remaining nematodes,"day 1, 10 nM",29
same,Number of remaining nematodes,"day 2, 10 nM",29
same,Number of remaining nematodes,"day 3, 10 nM",29
same,Number of remaining nematodes,"day 4, 10 nM",29
same,Number of remaining nematodes,"day 5, 10 nM",29
same,Number of remaining nematodes,"day 6, 10 nM",29
same,Number of remaining nematodes,"day 7, 10 nM",29
same,Number of remaining nematodes,"day 8, 10 nM",29
same,Number of remaining nematodes,"day 9, 10 nM",29
same,Number of remaining nematodes,"day 10, 10 nM",28
same,Number of remaining nematodes,"day 11, 10 nM",27
same,Number of remaining nematodes,"day 12, 10 nM",24
same,Number of remaining nematodes,"day 13, 10 nM",24
same,Number of remaining nematodes,"day 14, 10 nM",22
same,Number of remaining nematodes,"day 15, 10 nM",20
same,Number of remaining nematodes,"day 16, 10 nM",20
same,Number of remaining nematodes,"day 17, 10 nM",19
same,Number of remaining nematodes,"day 18, 10 nM",19
same,Number of remaining nematodes,"day 19, 10 nM",16
same,Number of remaining nematodes,"day 20, 10 nM",15
same,Number of remaining nematodes,"day 21, 10 nM",14
same,Number of remaining nematodes,"day 22, 10 nM",12
same,Number of remaining nematodes,"day 23, 10 nM",10
same,Number of remaining nematodes,"day 24, 10 nM",9
same,Number of remaining nematodes,"day 25, 10 nM",8
same,Number of remaining nematodes,"day 26, 10 nM",6
same,Number of remaining nematodes,"day 27, 10 nM",5
same,Number of remaining nematodes,"day 28, 10 nM",4
same,Number of remaining nematodes,"day 29, 10 nM",1
same,Number of remaining nematodes,"day 30, 10 nM",1
same,Number of remaining nematodes,"day 31, 10 nM",1
same,Number of remaining nematodes,"day 32, 10 nM",0
same,Number of remaining nematodes,"day 33, 10 nM",0
same,Number of remaining nematodes,"day 34, 10 nM",0
same,Number of remaining nematodes,"day 35, 10 nM",0
same,Number of remaining nematodes,"day 36, 10 nM",0
same,Number of remaining nematodes,"day 37, 10 nM",0
same,Number of remaining nematodes,"day 38, 10 nM",0
PTTKFAA [WD2],longest lifespan of the nematodes,,32 days
same,Median survival time (time to half death),,21.000 days
same,day when death occurs compared with the control group,,no significant difference
same,time to half death compared with the control group (significance),,does not have a significant difference
same,"longest lifespan, days longer than that of the control group",,4 days
same,time to half death longer than in the control group,,1 days
same,Number of remaining nematodes,"day 0, 10 nM",26
same,Number of remaining nematodes,"day 1, 10 nM",26
same,Number of remaining nematodes,"day 2, 10 nM",26
same,Number of remaining nematodes,"day 3, 10 nM",26
same,Number of remaining nematodes,"day 4, 10 nM",26
same,Number of remaining nematodes,"day 5, 10 nM",26
same,Number of remaining nematodes,"day 6, 10 nM",26
same,Number of remaining nematodes,"day 7, 10 nM",26
same,Number of remaining nematodes,"day 8, 10 nM",26
same,Number of remaining nematodes,"day 9, 10 nM",26
same,Number of remaining nematodes,"day 10, 10 nM",26
same,Number of remaining nematodes,"day 11, 10 nM",25
same,Number of remaining nematodes,"day 12, 10 nM",23
same,Number of remaining nematodes,"day 13, 10 nM",23
same,Number of remaining nematodes,"day 14, 10 nM",22
same,Number of remaining nematodes,"day 15, 10 nM",21
same,Number of remaining nematodes,"day 16, 10 nM",21
same,Number of remaining nematodes,"day 17, 10 nM",20
same,Number of remaining nematodes,"day 18, 10 nM",18
same,Number of remaining nematodes,"day 19, 10 nM",16
same,Number of remaining nematodes,"day 20, 10 nM",14
same,Number of remaining nematodes,"day 21, 10 nM",13
same,Number of remaining nematodes,"day 22, 10 nM",11
same,Number of remaining nematodes,"day 23, 10 nM",9
same,Number of remaining nematodes,"day 24, 10 nM",9
same,Number of remaining nematodes,"day 25, 10 nM",7
same,Number of remaining nematodes,"day 26, 10 nM",7
same,Number of remaining nematodes,"day 27, 10 nM",5
same,Number of remaining nematodes,"day 28, 10 nM",3
same,Number of remaining nematodes,"day 29, 10 nM",2
same,Number of remaining nematodes,"day 30, 10 nM",1
same,Number of remaining nematodes,"day 31, 10 nM",1
same,Number of remaining nematodes,"day 32, 10 nM",1
same,Number of remaining nematodes,"day 33, 10 nM",0
same,Number of remaining nematodes,"day 34, 10 nM",0
same,Number of remaining nematodes,"day 35, 10 nM",0
same,Number of remaining nematodes,"day 36, 10 nM",0
same,Number of remaining nematodes,"day 37, 10 nM",0
same,Number of remaining nematodes,"day 38, 10 nM",0
